Measured values published in patent publication US20200368312A1 (priority 2017, published 2020).
Read-outs that look alike come from different tables or passages of the source.

Legend:
Format in all cases: cell-based
S. haemolyticus (CoNS) = assay: Broth microdilution MIC, S. haemolyticus (CoNS) (Table 7); conditions: S. haemolyticus (CoNS) MMX 529 ATCC 29970
S. hominis (CoNS) = assay: Broth microdilution MIC, S. hominis (CoNS) (Table 7); conditions: S. hominis (CoNS) MMX 667 ATCC 27844
S. lugdenensis (CoNS) = assay: Broth microdilution MIC, S. lugdenensis (CoNS) (Table 7); conditions: S. lugdenensis (CoNS) MMX 8724
S. epidermidis (CoNS) = assay: Broth microdilution MIC, S. epidermidis (CoNS) (Table 7)
Staphylococcus aureus = assay: microbe, parasite or virus in culture; conditions: for MIC: Staphylococcus aureus, read-out: MIC
Clostridium difficile = assay: Broth microdilution MIC, C. difficile, anaerobic, supplemented Brucella Broth (Example 11, Table 7); conditions: C. difficile MMX 4381 ATCC 700057, toxinAB-negative
Streptococci = assay: Broth microdilution MIC, Streptococci (Example 11, Table 7)
Enterococci = tested on: Enterococci
P. anaerobius = assay: Broth microdilution MIC, P. anaerobius (Table 7); conditions: P. anaerobius MMX 1208 ATCC 27337
P. micros = assay: Broth microdilution MIC, P. micros (Table 7); conditions: P. micros MMX 3546
P. acnes = assay: Broth microdilution MIC, P. acnes (Table 7)
C. perfringens = tested on: C. perfringens
[1] = S. epidermidis (CoNS) MMX 762, MRSE
[2] = S. epidermidis (CoNS) MMX 5145, MRSE
[3] = ATCC 29213 / MSSA, S. aureus MMX 100 ATCC 29213, MSSA (quality control)
[4] = ATCC 33591 / MRSA, S. aureus MMX 5717 ATCC 33591, MRSA
[5] = ATCC BAA-1556 / MRSA, S. aureus MMX 4675 ATCC BAA-1556, MRSA
[6] = ATCC BAA-1756 / MRSA, S. aureus MMX 2011 ATCC BAA-1756, MRSA
[7] = VISA, S. aureus MMX 1723, Mu50, VISA
[8] = VISA, S. aureus MMX 2124, VISA, DaptoNS
[9] = S. anginosus (AGS) MMX 1201 ATCC 33397
[10] = S. pneumoniae MMX 1195 ATCC 49619, PISP
[11] = E. faecalis MMX 101 ATCC 29212, VSE

CC(=O)NC[C@H]1CN(c2ccc(N3CCOCC3)c(F)c2)C(=O)O1 [Linezolid]
214 ×: RV40 activity as compared to Comparator (Staphylococcus aureus; MRSA strains (Table 5), […])
1 mg/L: MIC (S. hominis (CoNS)) | MIC (Staphylococcus aureus; [4]) | MIC (Clostridium difficile) | MIC (Streptococci; S. agalactiae MMX 4088) | MIC (Streptococci; S. agalactiae MMX 4115, erm^R) | MIC (Streptococci; S. dysgalactiae MMX 5121) | MIC (Streptococci; S. dysgalactiae MMX 5123) | MIC (Streptococci; S. dysgalactiae MMX 5124) | MIC (Streptococci; S. oralis (MGS) MMX 5821) | MIC (Streptococci; S. pneumoniae MMX 432, PRSP) | MIC (Streptococci; S. pneumoniae MMX 747) | MIC (Streptococci; [10]) | MIC (Streptococci; S. pyogenes MMX 946, ermR) | MIC (Streptococci; S. pyogenes MMX 8778)
2 mg/L: MIC (S. epidermidis (CoNS); [1]) | MIC (Staphylococcus aureus; [6]) | MIC (Staphylococcus aureus; MRSA, S. aureus MMX 7900, MRSA) | MIC (Staphylococcus aureus; MRSA, S. aureus MMX 7901, MRSA) | MIC (Staphylococcus aureus; MRSA, S. aureus MMX 7902, MRSA) | MIC (Staphylococcus aureus; MSSA, S. aureus MMX 7908, MSSA) | MIC (Streptococci; S. pyogenes MMX 404 ATCC 19615) | MIC (Enterococci; [11]) | MIC (Enterococci; E. faecalis MMX 1086, VanA VRE) | MIC (Enterococci; E. faecium MMX 851, VanA VRE) | MIC (Enterococci; E. faecium MMX 4204)
4 mg/L: MIC (Staphylococcus aureus; [3]) | MIC (Enterococci; E. faecalis MMX 4176) | MIC (Enterococci; E. faecium MMX 173, VanB VRE)
3 mg/L: MIC (Staphylococcus aureus; MRSA, S. aureus MMX 2010, MRSA) | MIC (Staphylococcus aureus; MRSA, S. aureus MMX 3982, MRSA) | MIC (Staphylococcus aureus; MSSA, S. aureus MMX 7907, MSSA)
2.5 mg/L: MIC (Staphylococcus aureus; MRSA, S. aureus MMX 5985, MRSA) | MIC (Staphylococcus aureus; VISA, S. aureus MMX 4660, VISA)
1.25 mg/L: MIC (Staphylococcus aureus; [7])
1.5 mg/L: MIC (Staphylococcus aureus; [5]) | MIC (Staphylococcus aureus; MRSA, S. aureus MMX 5999, MRSA) | MIC (Staphylococcus aureus; MRSA, S. aureus MMX 7899, MRSA) | MIC (Staphylococcus aureus; MRSA, S. aureus MMX 7903, MRSA) | MIC (Staphylococcus aureus; MSSA, S. aureus MMX 2490, MSSA) | MIC (Staphylococcus aureus; S. aureus MMX 4665, hVISA) | MIC (Staphylococcus aureus; S. aureus MMX 5989, Mu3, hVISA) | MIC (Staphylococcus aureus; [8]) | MIC (Staphylococcus aureus; VISA, S. aureus MMX 4658, VISA)
0.5 mg/L: MIC (S. haemolyticus (CoNS)) | MIC (S. lugdenensis (CoNS)) | MIC (S. epidermidis (CoNS); [2]) | MIC (Streptococci; [9]) | MIC (Streptococci; S. constellatus (AGS) MMX 5677) | MIC (Streptococci; S. mitis (MGS) MMX 5798)

CN[C@H](CC(C)C)C(=O)N[C@H]1C(=O)N[C@@H](CC(N)=O)C(=O)N[C@H]2C(=O)N[C@H]3C(=O)N[C@H](C(=O)N[C@H](C(=O)O)c4cc(O)cc(O)c4-c4cc3ccc4O)[C@H](O[C@H]3C[C@](C)(N)[C@@H](O)[C@H](C)O3)c3ccc(c(Cl)c3)Oc3cc2cc(c3O[C@@H]2O[C@H](CO)[C@@H](O)[C@H](O)[C@H]2O[C@H]2C[C@](C)(NCc3ccc(-c4ccc(Cl)cc4)cc3)[C@@H](O)[C@H](C)O2)Oc2ccc(cc2Cl)[C@H]1O [Oritavancin]
0.05 mg/L: MIC (Streptococci; S. dysgalactiae MMX 5121)
0.015 mg/L: MIC (Enterococci; E. faecium MMX 4204) | MIC (C. perfringens)
0.03 mg/L: MIC (P. anaerobius) | MIC (P. micros) | MIC (Staphylococcus aureus; [3]) | MIC (Staphylococcus aureus; [6]) | MIC (Staphylococcus aureus; MRSA, S. aureus MMX 5985, MRSA) | MIC (Streptococci; S. mitis (MGS) MMX 1205 ATCC 49456) | MIC (Enterococci; E. faecalis MMX 4176)
0.025 mg/L: MIC (Staphylococcus aureus; MSSA, S. aureus MMX 2490, MSSA)
≤ 0.008 mg/L: MIC (S. lugdenensis (CoNS)) | MIC (P. acnes; P. acnes MMX 7942 ATCC 6919) | MIC (P. acnes; P. acnes MMX 7946 ATCC 11827) | MIC (Streptococci; S. constellatus (AGS) MMX 5677) | MIC (Streptococci; S. oralis (MGS) MMX 5821) | MIC (Streptococci; S. pneumoniae MMX 432, PRSP) | MIC (Streptococci; S. pneumoniae MMX 747) | MIC (Streptococci; [10]) | MIC (Enterococci; [11]) | MIC (Enterococci; E. faecium MMX 173, VanB VRE)
0.12 mg/L: MIC (S. haemolyticus (CoNS)) | MIC (S. epidermidis (CoNS); [2]) | MIC (Staphylococcus aureus; [4]) | MIC (Staphylococcus aureus; MRSA, S. aureus MMX 3982, MRSA) | MIC (Staphylococcus aureus; MRSA, S. aureus MMX 5999, MRSA) | MIC (Staphylococcus aureus; MRSA, S. aureus MMX 7899, MRSA) | MIC (Staphylococcus aureus; MRSA, S. aureus MMX 7900, MRSA) | MIC (Staphylococcus aureus; S. aureus MMX 5989, Mu3, hVISA) | MIC (Streptococci; S. agalactiae MMX 4088) | MIC (Enterococci; E. faecium MMX 851, VanA VRE)
17 ×: RV40 activity as compared to Comparator (Staphylococcus aureus)
0.25 mg/L: MIC (S. epidermidis (CoNS); [1]) | MIC (Staphylococcus aureus; VISA, S. aureus MMX 4658, VISA) | MIC (Streptococci; S. agalactiae MMX 4115, erm^R) | MIC (Streptococci; S. mitis (MGS) MMX 5798) | MIC (Streptococci; S. pyogenes MMX 946, ermR)
0.5 mg/L: MIC (Staphylococcus aureus; MRSA, S. aureus MMX 7901, MRSA) | MIC (Staphylococcus aureus; MRSA, S. aureus MMX 7902, MRSA) | MIC (Staphylococcus aureus; S. aureus MMX 4665, hVISA) | MIC (Streptococci; [9])
2 mg/L: MIC (Streptococci; S. dysgalactiae MMX 5123) | MIC (Streptococci; S. pyogenes MMX 404 ATCC 19615)
0.06 mg/L: MIC (S. hominis (CoNS)) | MIC (Staphylococcus aureus; [5]) | MIC (Staphylococcus aureus; MRSA, S. aureus MMX 2010, MRSA) | MIC (Staphylococcus aureus; MRSA, S. aureus MMX 7903, MRSA) | MIC (Staphylococcus aureus; MSSA, S. aureus MMX 7907, MSSA) | MIC (Staphylococcus aureus; MSSA, S. aureus MMX 7908, MSSA)
1 mg/L: MIC (Staphylococcus aureus; [7]) | MIC (Staphylococcus aureus; [8]) | MIC (Staphylococcus aureus; VISA, S. aureus MMX 4660, VISA) | MIC (Streptococci; S. agalactiae MMX 427 ATCC 13813) | MIC (Streptococci; S. dysgalactiae MMX 5124) | MIC (Streptococci; S. pyogenes MMX 8778) | MIC (Enterococci; E. faecalis MMX 1086, VanA VRE)
